This note sets out measurements from PubChem BioAssay (NCI).

Some test systems named below: A498 renal; UACC-62 melanoma; UACC-257 melanoma; U251 CNS; KM12 colon; OVCAR-8 ovarian; RXF 393 renal; M14 melanoma; 786-0 renal; SR leukemia.
Common to all, as to assay: NCI tumour cell line growth inhibition, 48 h

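Interpolation was linear, between the two tested concentrations surrounding the appropriate level; five concentrations were tested over 48 hours in 96-well plates. GI50: concentration for 50% inhibition of growth. TGI is the concentration that stops growth completely.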

As for `Oc1c(I)cc(I)cc1CNCCCN(Cc1ccccn1)Cc1ccccn1`, the GI50 is 0.661 µM in the assay with A498 renal; 0.907 µM with UACC-62 melanoma; 1.21 µM with UACC-257 melanoma; 1.11 µM with U251 CNS; 0.986 µM in the assay on KM12 colon; 1.25 µM in the assay on OVCAR-8 ovarian. Besides, the GI50 in the assay on RXF 393 renal was 0.866 µM. Also, the TGI was 1.32 µM in the assay with A498 renal; 1.74 µM in the assay on UACC-62 melanoma; 3.39 µM in the assay with UACC-257 melanoma; 2.68 µM in the assay on U251 CNS; 1.97 µM in the assay on KM12 colon; 3.27 µM with OVCAR-8 ovarian. This compound displayed a TGI in the assay with RXF 393 renal of 1.66 µM.

Regarding `C=C(C)CC1=C(C(=S)NCCO[Si](C)(C)C(C)(C)C)C(OCC)(OCC)C1=O`, the TGI came out at 40.5 µM in the assay with A498 renal; 35 µM in the assay with M14 melanoma; 33.4 µM in the assay on UACC-62 melanoma; 32.1 µM with UACC-257 melanoma; 63 µM in the assay on U251 CNS; 45.9 µM with KM12 colon. Further, the TGI with OVCAR-8 ovarian is greater than 100 µM; in the assay with 786-0 renal it was 33.1 µM; with RXF 393 renal it was 31.5 µM.

Turning to `[N-]=[N+]=C1CNC(=O)NC1=O`, the TGI with M14 melanoma, with UACC-62 melanoma, in the assay with UACC-257 melanoma, in the assay with U251 CNS, in the assay on KM12 colon and in the assay with OVCAR-8 ovarian was greater than 100 µM in each case. In addition, the TGI in the assay on 786-0 renal and with RXF 393 renal was greater than 100 µM each time.

As for `CC(=O)c1ccc(NC(=O)/C(=N\NC(N)=O)C(C#N)CC(C)(C)C=O)cc1` (stereo not given), the TGI in the assay with A498 renal, in the assay with M14 melanoma, in the assay on UACC-62 melanoma, with UACC-257 melanoma, in the assay with U251 CNS and in the assay with KM12 colon was greater than 100 µM each time. Moreover, the TGI in the assay with OVCAR-8 ovarian, in the assay on RXF 393 renal and in the assay on SR leukemia was greater than 100 µM each time.

Regarding `CCC(=N\NC(N)=S)/C(C)=N/O`, the TGI in the assay with M14 melanoma, with UACC-62 melanoma, in the assay with UACC-257 melanoma, in the assay with U251 CNS, in the assay on KM12 colon and in the assay on OVCAR-8 ovarian was greater than 100 µM throughout. The TGI in the assay on 786-0 renal and in the assay on RXF 393 renal was greater than 100 µM each time.

In the case of `Cc1ccc(NC(=O)c2cccc([N+](=O)[O-])c2O)c(C)c1`, the TGI with A498 renal is 63.5 µM; in the assay on M14 melanoma, greater than 100 µM; in the assay on UACC-62 melanoma, greater than 100 µM; in the assay on UACC-257 melanoma it was 66.2 µM; in the assay on U251 CNS it was greater than 100 µM; in the assay on KM12 colon it was greater than 100 µM. Also, the TGI with OVCAR-8 ovarian and in the assay on SR leukemia was greater than 100 µM in each case.

On to `CC1=CC(=O)c2cccc(NC3=NCCO3)c21`, for which the TGI with A498 renal is greater than 100 µM; in the assay on M14 melanoma, greater than 100 µM; with UACC-62 melanoma, greater than 100 µM; in the assay with U251 CNS, greater than 100 µM; in the assay on KM12 colon, 90.5 µM; in the assay with 786-0 renal it was greater than 100 µM. In addition, the TGI in the assay with RXF 393 renal was greater than 100 µM; in the assay with SR leukemia, 91.6 µM.

For `N#CSCC1COc2ccccc2O1` (stereo not given), the TGI with A498 renal, in the assay on M14 melanoma, in the assay on UACC-62 melanoma, with U251 CNS, with KM12 colon and in the assay on OVCAR-8 ovarian was greater than 10 µM each time. The TGI with RXF 393 renal and in the assay on SR leukemia was greater than 10 µM in each case.

With `CCCCNC(=S)/N=C/c1c(O)c2ccccc2oc1=O`, the TGI with M14 melanoma, in the assay with UACC-257 melanoma, in the assay on U251 CNS, in the assay with KM12 colon, in the assay on OVCAR-8 ovarian and in the assay on 786-0 renal was greater than 100 µM in each case.

As to `O=C(/C=C/c1cccs1)c1ccsc1`, the TGI in the assay on A498 renal was greater than 100 µM; in the assay with M14 melanoma, greater than 100 µM; with UACC-62 melanoma it was 38.5 µM; in the assay on UACC-257 melanoma it was 52.3 µM; in the assay with U251 CNS it was greater than 10 µM; in the assay with KM12 colon, greater than 10 µM. In addition, the TGI in the assay with OVCAR-8 ovarian was 96.5 µM; in the assay on 786-0 renal, greater than 100 µM; in the assay on SR leukemia, 38.5 µM.

With `O=C(c1ccc(Cl)cc1)N(C(=S)N1CCN(c2ccccn2)CC1)c1ccccc1`, the TGI in the assay with M14 melanoma, in the assay with UACC-62 melanoma, with UACC-257 melanoma, with U251 CNS, in the assay with KM12 colon and in the assay with OVCAR-8 ovarian was greater than 100 µM each time. Also, the TGI in the assay with 786-0 renal, in the assay with RXF 393 renal and in the assay on SR leukemia was greater than 100 µM throughout.

On to `CC(=O)OCC1OC(OCC2OC(N3C(=S)N[C@H]([C@@H](O)[C@H](O)[C@H](O)CO)[C@H]3O)C(OC(C)=O)C(OC(C)=O)C2OC(C)=O)C(OC(C)=O)C(OC(C)=O)C1OC(C)=O` (stereo not given in full), for which the TGI with A498 renal, in the assay on M14 melanoma, in the assay with UACC-62 melanoma, in the assay on U251 CNS, with KM12 colon and with OVCAR-8 ovarian was greater than 100 µM each time. For the same compound, the TGI in the assay on 786-0 renal, in the assay on RXF 393 renal and in the assay on SR leukemia was greater than 100 µM throughout.
